Measured values: BigSolDB 2.1

COC(=O)Nc1nc2ccc(Sc3ccccc3)cc2[nH]1
solubility (mole fraction)
Details | 283.15 K | 288.15 K | 293.15 K | 298.15 K | 303.15 K | 308.15 K | 313.15 K | 318.15 K | 323.15 K | 328.15 K
in 1,4-dioxane | – | 0.00107 | 0.00124 | 0.00148 | 0.00169 | 0.00195 | 0.00222 | 0.00256 | 0.00289 | 0.00326
in NMP | 0.0348 | 0.0389 | 0.0435 | 0.0485 | 0.0537 | 0.059 | 0.0651 | 0.0711 | 0.0773 | 0.0843
in acetone | 0.000176 | 0.000192 | 0.000211 | 0.000228 | 0.000246 | 0.000265 | 0.000287 | 0.000308 | 0.00033 | 0.000353
in water | 3.48e-06 | 4.4e-06 | 5.61e-06 | 7.12e-06 | 9.14e-06 | 1.15e-05 | 1.43e-05 | 1.77e-05 | 2.14e-05 | 2.63e-05
